# Measured values taken from PubChem BioAssay (NCI).
#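 How tested: cells in 96-well plates exposed to compound for 48 hours at five concentrations. GI50 marks 50% less growth. TGI: concentration producing complete growth inhibition.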
# Assays:
# Experiment in all cases: NCI tumour cell line growth inhibition, 48 h
# [1] = tested on: UO-31 renal
# [2] = tested on: SW-620 colon
# [3] = tested on: HT29 colon
# [4] = tested on: MDA-MB-231 breast
# [5] = tested on: SK-MEL-5 melanoma
# [6] = tested on: MALME-3M melanoma
# [7] = tested on: SNB-75 CNS
# [8] = tested on: 786-0 renal
SMILES,GI50 [1] [µM],TGI [1] [µM],GI50 [2] [µM],TGI [2] [µM],GI50 [3] [µM],TGI [3] [µM],GI50 [4] [µM],TGI [4] [µM],GI50 [5] [µM],TGI [5] [µM],GI50 [6] [µM],TGI [6] [µM],GI50 [7] [µM],TGI [7] [µM],GI50 [8] [µM],TGI [8] [µM]
COC(=O)c1cc(-c2cc(OC)c(OC)c(OC)c2)[nH]c1N/N=C/c1c(Cl)cccc1Cl,0.837,4.51,1.51,> 33.8,3.18,> 82.4,2.75,22.1,3.17,17.6,1.47,8.2,0.941,4.62,2.03,7.18
COc1ccc(C(=O)COc2cccc(/C=C3\CSc4ccccc4C3=O)c2)cc1,1.69,3.46,0.262,0.707,1.55,3.18,4.33,12.5,1.78,3.27,2.2,5.58,4.85,18.4,1.75,3.69
COc1ccc(-c2nnc(SCC(=O)Nc3ccc(/C(C)=N\O)cc3)n2-c2ccccc2)cc1OC,> 100,> 100,> 100,> 100,> 100,> 100,4.26,23.8,> 100,> 100,17.2,> 100,,,14.9,> 100
N=c1c2c(-c3ccccc3)c(-c3ccccc3)n(Cc3ccccc3)c2ncn1CCCO,2.24,16.5,0.377,15.5,0.363,3.77,1.4,8.33,0.901,2.16,1.55,3.84,1.38,8.43,1.92,16.2
N#Cc1cccc(C(=O)Nc2cccc(NC(=O)c3cccc(C#N)c3)c2)c1,> 100,> 100,> 100,> 100,> 100,> 100,75.9,> 100,29.2,> 100,,,> 100,> 100,33.4,> 100
O=C1CC(c2ccc3c(c2)OCO3)Nc2cc3c(cc21)OCO3 (centres undefined),0.767,> 100,0.357,> 100,0.374,22.3,,,0.364,1.94,,,,,0.778,36.3
CC1=CCC(OC(=O)C(C)(C)CCC(O)(C(=O)OC2(C(C)C)CCC3(C)OC3C2)C(C)C)(C(C)C)CC1 (centres undefined),0.0634,0.164,0.34,1.13,0.606,1.75,0.643,1.39,0.197,0.725,0.733,1.48,0.0258,1.41,0.616,1.54
Cc1ccc(NC(=O)c2cc3ccccc3c(N=Nc3ccccc3O)c2O)c(C)c1,,,,11.8,,13.8,,8.77,,3.35,,5.87,,2.5,,11.8
O=C1Nc2ccccc2C1Cc1ccc([N+](=O)[O-])cc1 (centres undefined),,> 100,,> 100,,> 100,,> 100,,> 100,,,,> 100,,> 100
O=C1c2ccc3c4c5ccc(c24)C(=O)N1CCCOCCCCOCCCNCc1ccc(cc1)CNCCCOCCCCOCCCN(C3=O)C5=O,1.1,5.12,0.964,2.06,0.956,2.36,1.07,2.98,0.855,1.55,0.628,1.3,0.724,1.48,0.956,2.02
O=C1/C(=C/c2ccc([N+](=O)[O-])o2)Oc2ccc(Br)cc21,1.46,3.02,1.69,3.23,2.64,5.78,1.8,3.84,2.67,8.17,1.92,4.74,15.2,52.9,2.47,5.29
Cc1ccc2c(c1C)-c1c(ccc(C)c1C)C(=O)C2=O,,4.36,,3.23,,7.43,,8.57,,1.29,,1.83,,,,1.8
NC(=O)c1cc([N+](=O)[O-])c(Cl)c([N+](=O)[O-])c1,1.77,3.24,1.9,3.99,2.58,5.51,1.96,3.84,5.59,18,2.27,4.54,4.63,17.8,1.96,3.56
NC(=NC1CCCCCCC1)c1ccc(N2CCN(c3ccc(C(N)=NC4CCCCCCC4)cc3)CC2)cc1,48.3,> 100,8.91,38.5,4.88,23.1,12.5,30.6,1.72,7.66,,,3.7,15.7,18.9,> 100
CC(=O)NCCSC(=O)c1ccccc1,,,,,,> 78.2,,7.71,,0.0801,,0.304,,12.4,,0.425
O=C(CCCCCCSc1nc(-c2ccccc2)cc(-c2ccccc2)n1)NO,1.09,3.85,1.49,12.8,2.02,11.3,2.54,7.62,1.46,3.48,1.02,8.31,1.7,14,1.91,4.48
Cn1ccc2c(c1=O)C(=O)c1nccc3c1c-2nc1ccccc13,1.55,3.21,1.28,3.17,,,1.64,3.13,1.51,2.84,2.2,4.09,1.17,2.43,1.64,3.18

SMILES,GI50 [1] [µM],TGI [1] [µM],GI50 [2] [µM],TGI [2] [µM],GI50 [3] [µM],TGI [3] [µM],GI50 [4] [µM],TGI [4] [µM],GI50 [5] [µM],TGI [5] [µM],GI50 [6] [µM],TGI [6] [µM],GI50 [7] [µM],TGI [7] [µM],GI50 [8] [µM],TGI [8] [µM]
Cc1nc2sc(C(=O)Nc3cccc4ccccc34)c(N)c2cc1C(=O)/C=C/c1ccccc1,0.351,1.03,0.21,1.66,0.173,1.06,0.709,2.61,0.379,1.69,0.343,> 34.9,0.232,> 10.4,0.25,0.979
COc1ccc2c(c1)c(-c1nc(-c3c[nH]c4ncccc34)cs1)cn2CCCCN1CCOCC1,1.43,3.23,1.99,3.92,2.18,3.94,1.7,3.5,1.75,3.16,1.55,3.34,1.31,2.85,1.78,3.3
Cc1nc2cnc3cc(F)c(-c4ccc(Oc5ncccn5)cc4Cl)cc3c2n1[C@H]1CCN(C(=O)CO)C[C@@H]1F,1.78,24.4,0.422,54.6,0.0513,16.9,0.101,5.83,0.49,14.7,,0.0316,12,36.2,8.47,> 100
Cn1c(=O)c(Oc2ccc(F)cc2F)cc2cnc(NC(CO)CO)nc21,> 25,> 25,> 25,> 25,> 25,> 25,> 25,> 25,> 25,> 25,> 25,> 25,> 25,> 25,> 25,> 25
C[C@]12CC[C@@H]3c4ccc(O)cc4CC[C@H]3[C@@H]1CC[C@@H]2NS(=O)(=O)c1cccc(C(F)(F)F)c1,2.25,11.6,3.72,15.6,3.39,10.2,2.39,6.77,1.79,3.29,2.83,8.65,2.98,15.5,3.06,8.95
c1cc(CCN2CCCCC2)ccn1,,> 100,,> 100,,> 100,,> 100,,> 100,,> 100,,> 100,,> 100
CN(CC(=O)O)c1ccc(/C=C/c2ccnc3ccccc23)cc1,,54,,> 100,,66.6,,> 100,,31.7,,,,86.8,,> 100
CC(=O)Nc1ccccc1C=C1c2ccccc2-c2ccccc21,,38.5,,> 100,,> 100,,58.2,,> 100,,> 100,,33.7,,45.2
COc1ccc(C/C(C)=C(\c2ccc(OCCN3CCOCC3)cc2)c2ccc(OC(=O)Cc3ccccc3)cc2)cc1,0.422,0.952,0.742,1.8,0.288,0.716,0.583,1.26,0.485,0.93,0.531,1.03,0.692,4.47,0.51,0.994
COc1ccc(-c2cnnn2-c2cc(OC)c3c(c2)OCO3)cc1,1.1,> 100,0.0531,> 100,0.0454,,0.194,4.63,0.185,7.33,,,0.0741,> 100,0.544,> 36.6
N#Cc1c(N)nc(N2CCOCC2)c(C#N)c1-c1ccc(Cl)cc1,,,> 100,> 100,43.3,> 100,17.5,90.9,27.4,> 100,,,14.5,55.9,70.7,> 100
CCCCCCC#Cc1ccccc1C#CCO,18.8,38.6,20.1,38,,,> 100,> 100,16.8,30.8,,,,,31.3,96.1
COc1cc2c3c(n(CCCNCC(OC)OC)c(=O)c2cc1OC)-c1cc2c(cc1C3=O)OCO2,2.13,22.5,2.05,24.2,4.99,32.2,3.09,20,,,21,47.6,17,> 59.1,0.274,8.75
Cc1ccc(/C=C2/SC(Nc3nc(-c4nc(NC5=NC(=O)/C(=C\c6ccc(C)cc6)S5)sc4C)c(C)s3)=NC2=O)cc1,6.03,> 50,0.714,> 50,3.62,> 50,1.36,19.9,0.077,,,,,,0.487,8.4
CC(C)(O)C1CCC(Nc2ccc3ncc(-c4cccc(C(F)(F)F)c4)n3n2)CC1 (centres undefined),1.07,11,2.91,15,2.23,12,1.96,14,,,2.25,13.6,1.77,8.99,1.94,4.64
COC1(O)C(=O)c2ccccc2OC1(OC)c1ccccc1 (centres undefined),,,,> 100,,> 100,,> 100,,> 100,,> 100,,> 100,,> 100
COc1ccc(-c2cc(-c3ccccc3)nc(N3CCN(CCNc4ccnc5cc(Cl)ccc45)CC3)n2)cc1,1.4,3.37,1.73,3.47,,,1.81,3.43,1.62,3,1.61,3.14,14.9,28.8,1.52,2.94
